{
  "source": "patent US12459894B2",
  "about": "“Orally active melanocortin receptor-4 compounds” (Palatin Technologies, Inc., priority 2018, dated 2025)",
  "key": {"[1]": {"assay": "Plasma concentrations following oral administration", "assay_type": "in vivo, Sprague-Dawley rats", "details": "Sprague-Dawley, rat, oral 30 mg/kg", "description": "Plasma samples were measured at 15 minutes (2 animals) and 30 minutes, 1 hour, 2 hours, 4 hours, 8 hours and 24 hours (3 animals) post oral administration."}, "hMC5r": {"biological_target": "T1, hMC5r (Homo sapiens, UniProt P33032)", "T1 construct": "expressed in transfected cells; host or cells: CHO", "T1 sequence (P33032 whole entry)": "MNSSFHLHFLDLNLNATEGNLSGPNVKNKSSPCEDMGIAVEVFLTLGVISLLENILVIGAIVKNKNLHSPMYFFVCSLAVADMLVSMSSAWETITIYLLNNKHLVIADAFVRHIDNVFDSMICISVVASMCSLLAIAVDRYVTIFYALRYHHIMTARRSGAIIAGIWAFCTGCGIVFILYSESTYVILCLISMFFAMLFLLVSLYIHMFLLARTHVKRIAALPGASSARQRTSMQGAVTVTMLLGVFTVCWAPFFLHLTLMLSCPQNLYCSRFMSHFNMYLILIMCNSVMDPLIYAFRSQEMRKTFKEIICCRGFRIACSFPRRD", "assay": "cAMP assay, human recombinant CHO cells, α-MSH reference", "assay_type": "cell-based", "details": "vs α-MSH", "description": "(§1) Melanocortin receptor binding and function of Compound 7.1 was tested. Ki binding values (nM) were calculated utilizing the percent inhibit of the binding of iodine-125 labeled NDP-α-MSH against B16-F1 cells for mMC1r, and human recombinant CHO cells for hMC3r, hMC4r and hMC5r, with the inhibition constant calculated using the Cheng Prusoff equation. Functional results (EC50 and efficacy) were calculated utilizing cAMP assays with NDP-α-MSH for mMC1r, hMC3r and hMC4r, ACTH for hMC2r, and α-MSH for hMC5r for agonist measures, with the same target cells for melanocortin receptors mMC1r, hMC3r, hMC4r and hMC5r, and human recombinant Cloudman M3 cells for hMC2r."}, "hMC2r": {"biological_target": "T2, hMC2r (Homo sapiens, UniProt Q01718)", "T2 construct": "expressed in transfected cells; host or cells: Cloudman M3 cells", "T2 sequence (Q01718 whole entry)": "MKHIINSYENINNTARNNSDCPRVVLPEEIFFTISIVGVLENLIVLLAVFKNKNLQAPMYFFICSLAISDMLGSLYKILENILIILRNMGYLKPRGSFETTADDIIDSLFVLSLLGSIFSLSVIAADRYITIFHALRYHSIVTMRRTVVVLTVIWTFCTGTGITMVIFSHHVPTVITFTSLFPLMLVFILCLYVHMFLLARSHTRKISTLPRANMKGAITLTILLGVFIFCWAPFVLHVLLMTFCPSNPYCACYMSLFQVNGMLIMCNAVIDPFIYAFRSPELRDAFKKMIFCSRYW", "T2 sequence (Q9D159 whole entry partner)": "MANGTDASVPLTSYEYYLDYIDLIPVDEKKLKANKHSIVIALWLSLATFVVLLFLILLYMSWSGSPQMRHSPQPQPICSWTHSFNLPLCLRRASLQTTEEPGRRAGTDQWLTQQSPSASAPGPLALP", "assay": "cAMP assay, human recombinant Cloudman M3 cells, ACTH reference", "assay_type": "cell-based", "details": "vs ACTH", "description": "as §1"}, "C57BI/6 DIO mice": {"tested_on": "C57BI/6 DIO mice", "assay": "Oral administration in DIO mice (comparison to MC4r knockout mice)", "assay_type": "in vivo, mouse", "description": "(§2) Feed intake and body weight was evaluated in MCr4 knockout (MC4r −/−) mice (Jackson Laboratories) compared to C57BI/6 DIO mice. […] Feed weights were taken at time 0, 2, 6 and 24 hours post lights out. […] The change in body weight is shown in FIG. 4 starting on study day 5, the first day of administraton of compound 7.1. […] Additionally, there was a statistically significant mean difference, 2.8%, 95% Cl (1.281, 4.253), and p value<0.0001 between DIO mice receiving compound 7.1 and MC4r (−/−) receiving compound 7.1."}, "MC4r (−/−) mice": {"tested_on": "MC4r (−/−) mice", "assay": "Oral administration in MC4r knockout mice", "assay_type": "in vivo, mouse", "details": "30 mg/kg twice daily oral gavage", "description": "as §2"}, "MC4r": {"biological_target": "MC4r (Homo sapiens, UniProt P32245)", "sequence (P32245 whole entry)": "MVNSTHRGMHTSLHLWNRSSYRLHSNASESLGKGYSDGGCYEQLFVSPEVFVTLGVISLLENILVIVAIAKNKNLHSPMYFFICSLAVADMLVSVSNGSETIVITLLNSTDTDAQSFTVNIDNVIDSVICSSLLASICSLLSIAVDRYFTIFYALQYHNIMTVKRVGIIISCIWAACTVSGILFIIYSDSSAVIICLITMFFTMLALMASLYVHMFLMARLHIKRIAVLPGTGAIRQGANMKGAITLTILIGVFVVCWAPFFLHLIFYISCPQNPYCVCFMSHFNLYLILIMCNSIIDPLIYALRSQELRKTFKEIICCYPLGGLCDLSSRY", "assay": "cAMP assay, human recombinant CHO cells, NDP-α-MSH reference", "assay_type": "cell-based", "design": "expressed in transfected cells; host or cells: CHO", "details": "vs NDP-α-MSH", "description": "as §1"}, "C57BL/6 male DIO mice": {"tested_on": "C57BL/6 male DIO mice", "assay": "Body weight and food intake in vivo study in diet induced obese (DIO) mice", "design": "species or system mouse", "description": "Compound 7.1 was assessed in a body weight and food intake in vivo study in diet induced obese (DIO) mice. C57BL/6 male DIO mice were utilized, that were 17 weeks of age on arrival. Animals were pre-conditioned on a high-fat diet for 11 weeks by Jackson Labs. […] Animals were single housed within a limited access rodent facility, and provided ad libitum with a commercial rodent diet and free access to drinking water. Animals were randomized into five groups, a vehicle group, three dose levels of compound 7.1 (3 mg/kg, 10 mg/kg and 30 mg/kg), and Peptide A, a positive control cyclic peptide of the formula Ac-Arg-cyclo(Om-Asn-D-Phe-Arg-Trp-Glu)-NH2. Following three days of sham dosing, animals were dosed for three days, with vehicle or Compound 7.1 dosed orally once daily at within one hour of lights out in the AM, and Peptide A dosed by subcutaneous injection twice daily within one hour before lights out and six hours after lights out. Body weights were measured one hour prior to lights out, and feed weights were measured both one hour prior to lights out and six hours post lights out.\n• *p<0.05 vs. sham (vehicle control) using two-way ANOVA followed by Dunnett's post-test. • **p<0.01 vs sham (vehicle control) using two-way ANOVA followed by Dunnett's post-test."}, "mMC1r": {"biological_target": "T3, mMC1r (Mus musculus, UniProt Q01727)", "T3 construct": "endogenous in cells; host or cells: B16-F1 mouse melanoma cells", "T3 sequence (Q01727 whole entry)": "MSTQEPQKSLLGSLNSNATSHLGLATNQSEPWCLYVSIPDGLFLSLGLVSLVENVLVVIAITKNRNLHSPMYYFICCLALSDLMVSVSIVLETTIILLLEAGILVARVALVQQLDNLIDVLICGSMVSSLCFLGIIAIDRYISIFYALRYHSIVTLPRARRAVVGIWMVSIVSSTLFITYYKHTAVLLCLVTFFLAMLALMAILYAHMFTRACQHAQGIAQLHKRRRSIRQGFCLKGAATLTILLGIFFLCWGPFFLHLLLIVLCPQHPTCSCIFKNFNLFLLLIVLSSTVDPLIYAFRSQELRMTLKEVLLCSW", "assay": "cAMP assay, B16-F1 cells, NDP-α-MSH reference", "assay_type": "cell-based", "details": "vs NDP-α-MSH", "description": "as §1"}, "hMC3r": {"biological_target": "T4, hMC3r (Homo sapiens, UniProt P41968)", "T4 construct": "expressed in transfected cells; host or cells: CHO", "T4 sequence (P41968 whole entry)": "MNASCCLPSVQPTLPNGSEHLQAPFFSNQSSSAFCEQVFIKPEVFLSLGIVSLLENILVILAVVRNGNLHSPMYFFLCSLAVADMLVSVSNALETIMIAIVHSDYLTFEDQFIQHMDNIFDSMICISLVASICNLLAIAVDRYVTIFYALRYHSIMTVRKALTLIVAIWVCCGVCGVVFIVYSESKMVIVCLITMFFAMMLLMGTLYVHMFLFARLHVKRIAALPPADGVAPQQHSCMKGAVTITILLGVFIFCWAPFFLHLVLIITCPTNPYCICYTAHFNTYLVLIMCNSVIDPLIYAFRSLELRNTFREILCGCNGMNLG", "assay": "cAMP assay, human recombinant CHO cells, NDP-α-MSH reference", "assay_type": "cell-based", "details": "vs NDP-α-MSH", "description": "as §1"}, "[2]": {"tested_on": "male mice homogygous for the obese spontaneous mutation, Lep^ob", "assay": "Oral administration in leptin-deficient obese mice", "assay_type": "in vivo, mouse", "details": "30 mg/kg twice daily for six consecutive days", "description": "Male mice homogygous for the obese spontaneous mutation, Lep^ob, with resulting leptin protein deficiency, were individually housed with free access to feed and drinking water. All animals were sham-dosed twice daily for five days prior to initial drug administration, utilizing a vehicle dose of 3.2% mannitol and […] tris(hydroxymethyl)aminomethane at pH 7.4. On day 6 a cohort of the mice received compound 7.1 dissolved into the vehicle twice daily for six consecutive days at a dose of 30 mg/kg. Body weight of animals was measured daily, with data analyzed as the percent change from baseline of each individual animal, where baseline was defined as the average weight during the first three days of sham dosing. The averaged percent change from baseline of a vehicle group was then subtracted from each value to correct for continued weight gain or other study-wide factors. The change in body weight is shown in FIG. 3 starting on study day […], the first day of administration of compound 7.1."}},
  "note": "Marks after values point to notes of the source that are not given here.",
  "data": [
    {"smiles": "CC(=O)N1CCC(N(CC(C)C)N2CCN(C(=O)[C@@H](Cc3ccc(Cl)cc3)NC(=O)C(C)(C)N)CC2)CC1", "note": "[Compound 7.1, N-[(1R)-2-[4-[(1-acetyl-4-piperidyl)-isobutyl-amino]piperazin-1-yl]-1-[(4-chlorophenyl)methyl]-2-oxo-ethyl]-2-amino-2-methyl-propanamide]", "values": [
      {"measurement": "Tmax", "setting": "[1]", "result": 2, "unit": "h"},
      {"measurement": "cAMP Efficacy", "setting": "hMC5r", "result": 20, "unit": "%"},
      {"measurement": "cAMP Efficacy", "setting": "hMC2r", "result": 22, "unit": "%"},
      {"measurement": "food consumption vs vehicle only", "setting": "C57BI/6 DIO mice; 30 mg/kg twice daily oral gavage, DIO mice, 6 and 24 hour timepoints", "result": "significantly decreased"},
      {"measurement": "mean difference in body weight change between DIO mice and MC4r (−/−) mice receiving compound", "setting": "C57BI/6 DIO mice; 30 mg/kg twice daily oral, p value<0.0001", "result": 2.8, "unit": "%"},
      {"measurement": "body weight vs own vehicle group", "setting": "C57BI/6 DIO mice; 30 mg/kg two daily administrations via oral gavage, DIO mice", "result": "significant body weight loss"},
      {"measurement": "mean percentage body weight change difference between treated group and vehicle", "setting": "C57BI/6 DIO mice; DIO mice, 30 mg/kg twice daily oral", "result": 4.9, "unit": "%"},
      {"measurement": "food consumption vs vehicle only", "setting": "MC4r (−/−) mice", "result": "no differences in food consumption"},
      {"measurement": "cAMP Efficacy", "setting": "MC4r", "result": 91, "unit": "%"},
      {"measurement": "Body Weight Change (%) Mean", "setting": "C57BL/6 male DIO mice; 3 mg/kg orally once daily, Day 0", "result": 0, "unit": "%"},
      {"measurement": "Food Intake - 24 Hours (g) Mean", "setting": "C57BL/6 male DIO mice; 3 mg/kg orally once daily, Day 0, 24 hours post lights out", "result": 1.90, "unit": "g"},
      {"measurement": "Body Weight Change (%) Mean", "setting": "C57BL/6 male DIO mice; 3 mg/kg orally once daily, Day 1", "result": "−1.97", "unit": "%"},
      {"measurement": "Food Intake - 24 Hours (g) Mean", "setting": "C57BL/6 male DIO mice; 3 mg/kg orally once daily, Day 1, 24 hours post lights out", "result": 2.03, "unit": "g"},
      {"measurement": "Body Weight Change (%) Mean", "setting": "C57BL/6 male DIO mice; 3 mg/kg orally once daily, Day 2", "result": "−2.92", "unit": "%"},
      {"measurement": "Food Intake - 24 Hours (g) Mean", "setting": "C57BL/6 male DIO mice; 3 mg/kg orally once daily, Day 2, 24 hours post lights out", "result": 2.11, "unit": "g"},
      {"measurement": "Body Weight Change (%) Mean", "setting": "C57BL/6 male DIO mice; 3 mg/kg orally once daily, Day 3", "result": "−3.80* %"},
      {"measurement": "body weight", "setting": "C57BL/6 male DIO mice; 3 mg/kg, day 3", "result": "body weight loss on day 3"},
      {"measurement": "Body Weight Change (%) Mean", "setting": "C57BL/6 male DIO mice; 10 mg/kg orally once daily, Day 0", "result": 0, "unit": "%"},
      {"measurement": "Food Intake - 24 Hours (g) Mean", "setting": "C57BL/6 male DIO mice; 10 mg/kg orally once daily, Day 0, 24 hours post lights out", "result": 1.82, "unit": "g"},
      {"measurement": "Body Weight Change (%) Mean", "setting": "C57BL/6 male DIO mice; 10 mg/kg orally once daily, Day 1", "result": "−2.48* %"},
      {"measurement": "Food Intake - 24 Hours (g) Mean", "setting": "C57BL/6 male DIO mice; 10 mg/kg orally once daily, Day 1, 24 hours post lights out", "result": 1.78, "unit": "g"},
      {"measurement": "Body Weight Change (%) Mean", "setting": "C57BL/6 male DIO mice; 10 mg/kg orally once daily, Day 2", "result": "−3.77** %"},
      {"measurement": "Food Intake - 24 Hours (g) Mean", "setting": "C57BL/6 male DIO mice; 10 mg/kg orally once daily, Day 2, 24 hours post lights out", "result": 2.20, "unit": "g"},
      {"measurement": "Body Weight Change (%) Mean", "setting": "C57BL/6 male DIO mice; 10 mg/kg orally once daily, Day 3", "result": "−4.35** %"},
      {"measurement": "Body Weight Change (%) Mean", "setting": "C57BL/6 male DIO mice; 30 mg/kg orally once daily, Day 0", "result": 0, "unit": "%"},
      {"measurement": "Food Intake - 24 Hours (g) Mean", "setting": "C57BL/6 male DIO mice; 30 mg/kg orally once daily, Day 0, 24 hours post lights out", "result": "1.62* g"},
      {"measurement": "Body Weight Change (%) Mean", "setting": "C57BL/6 male DIO mice; 30 mg/kg orally once daily, Day 1", "result": "−4.41** %"},
      {"measurement": "Food Intake - 24 Hours (g) Mean", "setting": "C57BL/6 male DIO mice; 30 mg/kg orally once daily, Day 1, 24 hours post lights out", "result": "1.60* g"},
      {"measurement": "Body Weight Change (%) Mean", "setting": "C57BL/6 male DIO mice; 30 mg/kg orally once daily, Day 2", "result": "−5.82** %"},
      {"measurement": "Food Intake - 24 Hours (g) Mean", "setting": "C57BL/6 male DIO mice; 30 mg/kg orally once daily, Day 2, 24 hours post lights out", "result": "1.91* g"},
      {"measurement": "Body Weight Change (%) Mean", "setting": "C57BL/6 male DIO mice; 30 mg/kg orally once daily, Day 3", "result": "−7.08** %"},
      {"measurement": "feed intake", "setting": "C57BL/6 male DIO mice; 30 mg/kg, 24 hours post lights out, entirety of the study, vs sham", "result": "significantly inhibited feed intake"},
      {"measurement": "body weight", "setting": "C57BL/6 male DIO mice; daily 10 mg/kg and 30 mg/kg, day 1 to 3", "result": "significant body weight loss"},
      {"measurement": "cAMP Efficacy", "setting": "mMC1r", "result": 72, "unit": "%"},
      {"measurement": "cAMP Efficacy", "setting": "hMC3r", "result": 28, "unit": "%"},
      {"measurement": "decrease in body weight compared to vehicle controls", "setting": "[2]", "result": 4.8, "unit": "%"}
    ]}
  ]
}
